Experimental data taken from patent publication US11667649B2, “Heteroaromatic macrocyclic ether chemotherapeutic agents” (Nuvalent, Inc., priority 2020, dated 2023).

System: TPM3-NTRK1-wt IC50 / primary target (e.g. CD74-ROS1-wt) IC50, Ba/F3 cells
Test: Cell assay TRKA selectivity (TRKA potency divided by primary target potency)
Assay type: cell-based
Details: for TPM3-NTRK1-wt/CD74-ROS1-G2032R: TRKA selectivity ratio: TPM3-NTRK1-wt IC50 / CD74-ROS1-G2032R IC50, Ba/F3 cells; for TPM3-NTRK1-wt/CD74-ROS1-wt: TRKA selectivity ratio: TPM3-NTRK1-wt IC50 / CD74-ROS1-wt IC50, Ba/F3 cells; for TPM3-NTRK1-wt/EML4-ALK-L1196M-G1202R: TRKA selectivity ratio: TPM3-NTRK1-wt IC50 / EML4-ALK-L1196M-G1202R IC50, Ba/F3 cells; for TPM3-NTRK1-wt/EML4-ALK-wt: TRKA selectivity ratio: TPM3-NTRK1-wt IC50 / EML4-ALK-wt IC50, Ba/F3 cells
Method in brief: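 IL-3-independent Ba/F3 lines stably expressing TPM3-TRKA or the primary fusion (e.g. CD74-ROS1 wt) were exposed to 3-fold compound dilutions for 72 h. Viability was read by CellTiter-Glo luminescence, with IC50 from four-parameter logistic fit. Selectivity is TPM3-NTRK1 IC50 divided by primary-target IC50, binned A (>30-fold) to D (<1).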

| SMILES | TPM3-NTRK1-wt/CD74-ROS1-G2032R | TPM3-NTRK1-wt/CD74-ROS1-wt | TPM3-NTRK1-wt/EML4-ALK-L1196M-G1202R | TPM3-NTRK1-wt/EML4-ALK-wt |
| --- | --- | --- | --- | --- |
| CCn1ncc2c1-c1cnc(N)c(c1)O[C@H](C)c1cc(F)ccc1-c1nn(C)c(Cl)c1C2 [Example 28, (19R)-9-chloro-3-ethyl-16-fluoro-10,19-dimethyl-20-oxa-3,4,10,11,23-pentaazapentacyclo[19.3.1.0^2,^6.0^8,^12.0^13,^18]pentacosa-1(24),2(6),4,8,11,13,15,17,21(25),22-decaen-22-amine] | A (bin A for very high selectivity, ratio>30-fold) | A (bin A for very high selectivity, ratio>30-fold) | C (bin C for moderate selectivity, ratio≥1) | A (bin A for very high selectivity, ratio>30-fold) |
| C[C@H]1Oc2cc(cnc2N)-c2c(C#N)cnn2Cc2ccnn2-c2ccc(F)cc21 [Example 62, (19R)-22-amino-16-fluoro-19-methyl-20-oxa-5,6,11,12,23-pentaazapentacyclo[19.3.1.0^2,^6.0^8,^12.0^13,^18]pentacosa-1(24),2,4,8,10,13,15,17,21(25),22-decaene-3-carbonitrile] | B (bin B for high selectivity, ratio>10-fold) | A (bin A for very high selectivity, ratio>30-fold) | C (bin C for moderate selectivity, ratio≥1) | A (bin A for very high selectivity, ratio>30-fold) |
| C[C@H]1Oc2cc(cnc2N)-c2c(C#N)ncn2Cc2ccncc2-c2ccc(F)cc21 [Example 11, (20R)-23-amino-17-fluoro-20-methyl-21-oxa-4,6,11,24-tetraazapentacyclo[20.3.1.0^2,^6.0^8,^13.0^14,^19]hexacosa-1(25),2,4,8(13),9,11,14,16,18,22(26),23-undecaene-3-carbonitrile] | A (bin A for very high selectivity, ratio>30-fold) | A (bin A for very high selectivity, ratio>30-fold) | C (bin C for moderate selectivity, ratio≥1) | A (bin A for very high selectivity, ratio>30-fold) |
| CCc1snc2c1-c1cnc(N)c(c1)O[C@H](C)c1cc(F)ccc1-c1nn(C)cc1C2 [Example 88, (19R)-3-ethyl-16-fluoro-10,19-dimethyl-20-oxa-4-thia-5,10,11,23-tetraazapentacyclo[19.3.1.0^2,^6.0^8,^12.0^13,^18]pentacosa-1(24),2,5,8,11,13,15,17,21(25),22-decaen-22-amine] | B (bin B for high selectivity, ratio>10-fold) | A (bin A for very high selectivity, ratio>30-fold) | C (bin C for moderate selectivity, ratio≥1) | A (bin A for very high selectivity, ratio>30-fold) |
| C[C@H]1Oc2cc(cnc2N)-c2c(nnn2CC2CC2)Cc2cccnc2-c2ccc(F)cc21 [Example 116, (20R)-3-(cyclopropylmethyl)-17-fluoro-20-methyl-21-oxa-3,4,5,12,24-pentaazapentacyclo[20.3.1.0^2,^6.0^8,^13.0^14,^19]hexacosa-1(25),2(6),4,8(13),9,11,14,16,18,22(26),23-undecaen-23-amine] | A (bin A for very high selectivity, ratio>30-fold) | A (bin A for very high selectivity, ratio>30-fold) | A (bin A for very high selectivity, ratio>30-fold) | A (bin A for very high selectivity, ratio>30-fold) |
| CCn1ncc2c1-c1cnc(N)c(c1)OCc1cc(F)ccc1-c1ncccc1C2 [Example 8, 3-ethyl-17-fluoro-21-oxa-3,4,12,24-tetraazapentacyclo[20.3.1.0^2,^6.0^8,^13.0^14,^19]hexacosa-1(25),2(6),4,8(13),9,11,14,16,18,22(26),23-undecaen-23-amine] | A (bin A for very high selectivity, ratio>30-fold) | A (bin A for very high selectivity, ratio>30-fold) | B (bin B for high selectivity, ratio>10-fold) | A (bin A for very high selectivity, ratio>30-fold) |
